“Also recorded” adds a separate entry of the source. Read-outs that look alike come from different tables or passages of the source.
Columns and labels:
mouse L929 fibroblasts = system: mouse L929 fibroblasts; set-up: method as in ref 19 (a number printed in a supplementary file, which may have a reference list of its own: not looked up in the article's list); conditions: 1µM auranofin; cited from earlier work
Hs 822.T. = experiment: Hits validation, dose-response cell proliferation (CellTiter-Glo); type: cell-based; conditions: control cell line, 12-point dose-response, mean ± SD
Summary of the method: (§1)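 Read-out is CellTiter-Glo luminescence, from which IC50 values were calculated for each drug. Wells held 750–1,500 cells plated the day before treatment, with drug concentrations spanning 1 nmol/L to 50 μmol/L and vehicle controls included.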

[1] = Dissociation of auranofin in plasma, whole blood and simulated gastric fluid; type: in vitro ADME; conditions: unpublished results
mouse lymphoma = system: mouse lymphoma; set-up: method as in ref 18, ref 19; conditions: 313 to 700 ng/mL, in the presence of a rat liver microsomal preparation; cited from earlier work
Hs 919.T. = experiment: Hits validation, dose-response cell proliferation (CellTiter-Glo); type: cell-based; conditions: control cell line, 12-point dose-response, mean ± SD
Summary of the method: as §1

Rhesus monkey lung = system: Rhesus monkey lung; set-up: method as in ref 19 (a number printed in a supplementary file, which may have a reference list of its own: not looked up in the article's list); conditions: 1.5 x 10^-4M; cited from earlier work
mouse spleen cells = system: mouse spleen cells; set-up: method as in ref 19 (a number printed in a supplementary file, which may have a reference list of its own: not looked up in the article's list); conditions: 1 x 10^-4M and 1 x 10^-5M; cited from earlier work
[2] = cited from earlier work; for tumors of the renal tubular epithelium: 12-month study, rats
[3] = set-up: method as in ref 19 (a number printed in a supplementary file, which may have a reference list of its own: not looked up in the article's list); conditions: cited from earlier work
ovarian cancer = system: ovarian cancer; set-up: method as in PMID 25502607; conditions: 3 mg auranofin orally twice per day, 10 patients, 95% CI: 1.3–3.8; cited from earlier work
[4] = Formulation and PK studies of auranofin (blood gold, ICPMS); type: in vivo, BALB/c mice
Experimental: Ridaura® (auranofin) is typically delivered orally (capsules containing 3 mg auranofin) and has been repurposed in several clinical trials with limited results (i.e., clinicaltrials.gov identifier: NCT01419691, NCT02126527, and NCT02126527). […] Additionally, the ability to increase the dose of auranofin to achieve higher blood concentrations of gold was limited by dose-limiting gastrointestinal side effects (diarrhea, loose stools, nausea, vomiting and abdominal cramps). For our studies we dosed BALB/c mice orally at 10 mg/Kg with different formulations of auranofin suspensions prepared in 0.5% hydroxypropyl methyl cellulose to help assure dose uniformity. We compared the ground contents of Ridaura® capsules, the ground pure auranofin drug substance, auranofin suspension containing 0.5% sodium lauryl sulfate (a surfactant), auranofin suspensions with the pH adjusted to pH = 1, 4 and 7, auranofin suspension dosed into fasted versus high fat diet mice and finally a solution of auranofin prepared in 5% dimethyl sulfoxide (DMSO) with a pH = 1. Pharmacokinetic studies were conducted on all of these formulation variations. Blood samples from 3 mice at each time point (0, 1, 2, 4, 8, 12, 24, 48 and 96 hours) and the whole blood was assayed by ICPMS for gold.
We additionally studied dose accumulation of the gold by comparing a formulation of Ridaura® capsule contents as described above and dosing at 10 mg/Kg single dose versus dosing the mice once daily for 5 days. The PK study compared the gold content in whole blood samples as described above for the single dose versus the gold content in whole blood samples from the multidose arm with whole blood collected at the end of each 24 hour dosing period before the next dose (24, 48, 72, 96 and 120 hours) and then whole blood collected every 24 hours for 5 additional days (144, 168, 192, 216 and 240 hours) and assayed for gold content. The results of these formulation and PK studies are shown in Supplementary Table S2.
These findings led us to develop and assess injectable (i.v. and i.p.) formulations of auranofin. By defining maximum tolerated dose (MTD) following i.v. and i.p. administration of solution and suspension formulations of auranofin, our intent was to evaluate auranofin alone and in combination with ganetespib at MTD in mouse xenograft studies using the more convenient i.p. route of administration. Following administration of the solution formulation of auranofin i.v. and i.p., the maximum tolerated dose was estimated at 1 mg/kg and 6 mg/kg, respectively. Following a single i.p. suspension dose of auranofin, the maximum tolerated dose was 16 mg/kg. This dose was reduced to 12 mg/kg and dose tolerance was evaluated after 5 daily doses of auranofin suspension i.p. to determine the effects of the accumulation of gold in the blood due to the slow elimination of gold. Based on the i.p. suspension dose tolerance studies, the auranofin suspension formulation and dose level of 12 mg/kg was selected for evaluation in xenograft mouse studies.

human monocyte = system: human monocyte; set-up: method as in ref 19 (a number printed in a supplementary file, which may have a reference list of its own: not looked up in the article's list); conditions: 0.1 - 1.0 µg auranofin/mL; cited from earlier work
Saccharomyces = system: Saccharomyces; set-up: method as in ref 18, ref 19; conditions: cited from earlier work
[5] = Suspension, single 10 mg/kg Oral

CC(=O)OC[C@H]1O[C@@H]([S-])[C@H](OC(C)=O)[C@@H](OC(C)=O)[C@@H]1OC(C)=O.CCP(CC)CC.[Au+] [Auranofin, auranofin]
ADCC (mouse L929 fibroblasts): inhibited | IC50 (Hs 822.T.): 1.45 ± 0.09 µM | stability in plasma and whole blood ex vivo and simulated gastric fluid in vitro [1]: immediately and completely dissociates | mutation frequencies (mouse lymphoma): induced increases in the mutation frequencies | IC50 (Hs 919.T.): 5.38 ± 0.89 µM | anti-human IgE-induced release of histamine and SRS-A (Rhesus monkey lung): inhibition | plaque-forming cells (mouse spleen cells): marked inhibition | tumors of the renal tubular epithelium ([2]; 3.6 mg/kg/day): did not | tumors of the renal tubular epithelium ([2]; 23 mg/kg/day): tum ors of the renal tubular epithelium; also recorded: developed adenomas of the renal tubular epithelium | frequency of renal tubular cell karyomegaly and cytomegaly and renal adenoma ([2]; 24-month study in rats, auranofin 1.0 or 2.5 mg/kg/day orally, gold sodium thiomalate 2 or 6 mg/kg twice weekly): significant incr ease | effect on hemodynamic and electrocardiographic parameters, pulmonary function, CNS activity, gastric mucosa or endocrine system [3]: no significant effect | median PFS (ovarian cancer): 2.8 months | Cmax ([4]; Solution, five daily 4 mg/kg IP): 10384 ng/mL | AUC (0 to ∞) ([4]; Solution, single 4 mg/kg IP): 210.336 µg·h/mL | Cmax ([4]; Solution, single 4 mg/kg IP): 4071 ng/mL | Half Life ([4]; Solution, single 4 mg/kg IP): 29.7 h | Tmax ([4]; Solution, single 4 mg/kg IP): 1 h | Cmax ([4]; Suspension, five daily 10 mg/kg Oral): 5780 ng/mL | AUC (0 to ∞) [4, 5]: 187.7 µg·h/mL | Cmax [4, 5]: 3680 ng/mL | Half Life [4, 5]: 28.4 h | Tmax [4, 5]: 24 h | AUC (0 to ∞) ([4]; Suspension, single 12 mg/kg IP): 550.846 µg·h/mL | Cmax ([4]; Suspension, single 12 mg/kg IP): 13068 ng/mL | Half Life ([4]; Suspension, single 12 mg/kg IP): 26.4 h | Tmax ([4]; Suspension, single 12 mg/kg IP): 1 h | effect of oral formulation variations on amount of gold absorbed ([4]; oral 10 mg/kg, various suspensions and a solution): unable to alter the amount of auranofin (gold) absorbed | phagocytosis (human monocyte): inhibited | mutation effects (Saccharomyces): no m utation effects

— PMC5354814, “In silico and in vitro drug screening identifies new therapeutic approaches for Ewing sarcoma” (Oncotarget, 2016)
